# Measurements from US6303618A, “Cyclin dependent kinase inhibiting purine derivatives” (priority 1997, dated 2001).
# Read-outs that look alike come from different tables or passages of the source.
# What was measured:
# CDK2 = CDK2 (Homo sapiens, UniProt P24941); test: CDK inhibition assay, CDK2; format: biochemical
# Text: (§1) Apart from reference compounds, the compounds listed are accompanied by an NU reference or identification code number.
# (§2) By way of example, however, a typical protocol is summarised below.
# CDK1 (p34 cdc2)/cyclin B = test: CDK inhibition assay (histone H1 kinase), CDK1; format: biochemical, starfish (Marthasterias glacialis); details: for IC50: CDK1; for IC50 / effect of side chain at N9 or N7, or halo at C2, on activity: Table 1; for % inhibition CDK1: at 100 μM; for effect of side chain at N9 or N7, or halo at C2, on activity: in words
# Method: as §2
# Histone H1 (type III-S (Sigma) 4° C.) 5 mg/ml in buffer C.
# [^32 P]ATP […]: Make up using (multiples of) the following proportions:
# DMSO cannot exceed 1% in the assay mixture. Inhibitors are added at 1/10 final assay volume and 10×final strength. DMSO stocks must therefore be diluted to 10×final desired concentration in ≤10% DMSO, ≥90% buffer C.
# Start reaction in each tube at 30 second intervals by adding
# […] [^32 P]ATP vortexing and placing in rack in waterbath at 30° C.
# Terminate reaction after 10 min at 30 second intervals in tubes in same order by removing
# […] reaction mix and spotting onto appropriately labelled filter, allowing to dry for 20-30 seconds and transferring to stirring 1% phosphoric acid.
# Blank incubation is performed as above but without histone (add […] buffer C instead) Washing blank is […] ATP added directly to filter.
# CDK4 = CDK4 (Homo sapiens, UniProt P11802); test: CDK inhibition assay, CDK4; format: biochemical; details: CDK4; Table 1; read-out: IC50 CDK4
# CDK4, sequence (P11802 whole entry, species assumed): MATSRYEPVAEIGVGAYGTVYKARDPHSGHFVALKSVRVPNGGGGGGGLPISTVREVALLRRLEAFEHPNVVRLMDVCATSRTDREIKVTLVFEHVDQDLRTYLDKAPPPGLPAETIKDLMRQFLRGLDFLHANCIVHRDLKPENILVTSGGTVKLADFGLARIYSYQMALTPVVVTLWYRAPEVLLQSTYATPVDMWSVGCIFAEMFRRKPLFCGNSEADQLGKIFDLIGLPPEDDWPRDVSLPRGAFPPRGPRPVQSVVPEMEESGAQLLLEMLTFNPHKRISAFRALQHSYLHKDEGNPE
# CDK4, sequence (P24385 whole entry partner, species assumed): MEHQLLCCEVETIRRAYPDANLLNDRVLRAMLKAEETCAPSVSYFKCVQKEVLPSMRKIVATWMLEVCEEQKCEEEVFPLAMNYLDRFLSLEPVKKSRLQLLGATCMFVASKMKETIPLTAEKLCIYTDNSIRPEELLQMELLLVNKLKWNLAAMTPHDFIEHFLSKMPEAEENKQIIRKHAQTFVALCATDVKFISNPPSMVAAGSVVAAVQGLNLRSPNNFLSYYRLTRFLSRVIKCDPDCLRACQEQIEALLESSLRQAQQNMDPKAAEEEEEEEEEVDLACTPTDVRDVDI
# Text: as §1, §2
# [1] = at 100 μM, read-out: % inhibition CDK2
# [2] = read-out: % inhibition CDK2, at 100 μM
compound,measurement,setting,value
"CNc1cc(Cl)nc(N)n1 [NU6042, 2-amino-4-chloro-6-methylamino pyrimidine]",inhibition at 100 µM,CDK2; [1],14 ± 24%
"CCOC(C)(COc1nc(N)nc2[nH]cnc12)OCC [NU2032, 2-amino-6-(2,2-diethoxy) propoxypurine]",IC50,CDK1 (p34 cdc2)/cyclin B,> 100 µM
"Nc1nc(OCC2COc3ccccc3O2)c2nc[nH]c2n1 (centres unmarked) [NU6026, 2-amino-6-[1',4'-benzodioxanyl-2'-methyl]oxypurine]",% inhibition CDK2,CDK2; at 10 μM,9%
same,inhibition at 10 µM,"CDK2; read-out: % inhibition CDK2, at 10 μM",12%
same,inhibition at 100 µM,CDK2; [2],96%
same,IC50,CDK4,> 100 µM
"CC(C)C(=O)COc1nc(N)nc2nc[nH]c12 [NU2056, O^6-(3-Methyl-2-oxobutyl)guanine]",IC50,CDK1 (p34 cdc2)/cyclin B,22 µM
same,inhibition at 100 µM,CDK2; [2],33 ± 2%
same,IC50,CDK4,122 µM
"Nc1nc(OCCc2ccccc2)c2nc[nH]c2n1 [NU2041, O^6-(2-Phenylethyl)guanine]",IC50,CDK1 (p34 cdc2)/cyclin B,100 µM
"Nc1nc(OCC(O)CO)c2nc[nH]c2n1 (centres unmarked) [NU2040, 2-amino-6-(2,3-dihydroxy) propoxypurine]",IC50,CDK1 (p34 cdc2)/cyclin B,> 100 µM
"C=CCCCCOc1nc(N)nc2[nH]cnc12 [NU2061, O^6-(5'-Hexenyl)guanine]",IC50,CDK1 (p34 cdc2)/cyclin B,12 µM
"C=CCOc1nc(N(C)C)nc2nc[nH]c12 [NU2048, 2-(N,N-dimethyl)amino-6-allyloxypurine]",IC50,CDK1 (p34 cdc2)/cyclin B,22 µM
"Nc1nc(OCC2COC3(CCCCC3)O2)c2nc[nH]c2n1 (centres unmarked) [NU6022, O^6-(1,4-Dioxaspiro[4.5]decane-2-methoxy)guanine]",% inhibition CDK1,CDK1 (p34 cdc2)/cyclin B,26 ± 6%
same,inhibition at 100 µM,CDK2; [2],27 ± 4%
"CC1(C)OC[C@@H](COc2nc(N)nc3[nH]cnc23)O1 [NU6024, 2-amino-6-[(R)-2',2'-dimethyl-1',3'-dioxolane-5'-methyl]oxypurine]",% inhibition CDK1,CDK1 (p34 cdc2)/cyclin B,50 ± 1%
same,inhibition at 100 µM,CDK2; [1],38 ± 3%
"CC1(C)OC[C@H](COc2nc(N)nc3[nH]cnc23)O1 [NU6025, 2-amino-6-[(S)-2',2'-dimethyl-1',3'-dioxolane-5'-methyl]oxypurine]",% inhibition CDK1,CDK1 (p34 cdc2)/cyclin B,34 ± 2%
same,inhibition at 100 µM,CDK2; [2],28 ± 4%
"c1nc(OCC2CCCCO2)c2[nH]cnc2n1 (centres unmarked) [NU2014, 6-(2-tetrahydropyranyl-methyloxy)purine]",IC50,CDK1 (p34 cdc2)/cyclin B,> 100 µM
"Nc1nc(OCc2cccnc2)c2nc[nH]c2n1 [NU6029, 2-Amino-6-(3'-pyridyl)methyloxypurine]",% inhibition CDK1,CDK1 (p34 cdc2)/cyclin B,56 ± 4%
same,inhibition at 100 µM,CDK2; [1],43 ± 4%
"c1ccc(COc2ncnc3nc[nH]c23)cc1 [NU2002, 6-Benzyloxypurine]",IC50,CDK1 (p34 cdc2)/cyclin B,51 µM
"C=CCOc1nc(N)nc2c1ncn2Cc1ccccc1 [NU2038, O^6 -Allyl-N^9 -benzylguanine]",IC50,CDK1 (p34 cdc2)/cyclin B,> 1000 µM
same,"effect of side chain at N9 or N7, or halo at C2, on activity",CDK1 (p34 cdc2)/cyclin B,activity drastically diminishes
"C=CCOc1nc(Cl)nc2nc[nH]c12 [NU2051, 6-allyloxy-2-chloropurine]",IC50,CDK1 (p34 cdc2)/cyclin B,400 µM
same,"effect of side chain at N9 or N7, or halo at C2, on activity",CDK1 (p34 cdc2)/cyclin B,activity drastically diminishes
"C=C(CC)COc1nc(N)nc2[nH]cnc12 [NU2054, O^6-(2-Ethylallyl)guanine]",IC50,CDK1 (p34 cdc2)/cyclin B,20 µM
"C=C(C)COc1nc(N)nc2[nH]cnc12 [NU2034, O^6-(2-Methylallyl)guanine]",IC50,CDK1 (p34 cdc2)/cyclin B,32 µM
"C=CCOc1nc(N)nc2ncn(CC=C)c12 [NU2037, N^7,O^6 -Diallylguanine]",IC50,CDK1 (p34 cdc2)/cyclin B,> 1000 µM
same,"effect of side chain at N9 or N7, or halo at C2, on activity",CDK1 (p34 cdc2)/cyclin B,activity drastically diminishes
"CC(C)CCOc1nc(N)nc2nc[nH]c12 [NU2053, O^6-(3'-Methyl)butylguanine]",IC50,CDK1 (p34 cdc2)/cyclin B,18 µM
same,IC50,CDK4,70 µM
"COC(COc1nc(N)nc2[nH]cnc12)(OC)c1ccccc1 [NU2081, 2-amino-6-(2,2-dimethoxy)-2-phenylethyloxypurine]",IC50,CDK1 (p34 cdc2)/cyclin B,> 100 µM
"CC(C)C1(COc2nc(N)nc3[nH]cnc23)OCCO1 [NU2057, O^6-(3-Methyl-2-oxobutyl)guanine ethylene acetal]",IC50,CDK1 (p34 cdc2)/cyclin B,105 µM
"c1nc(OCC2CCCCC2)c2[nH]cnc2n1 [NU2017, 6-cyclohexylmethoxypurine]",IC50,CDK1 (p34 cdc2)/cyclin B,16 µM
same,IC50,"CDK2; CDK2, Table 1, read-out: IC50 CDK2",15.5 µM
same,inhibition at 100 µM,CDK2; [2],61 ± 2%
"CCC(COc1nc(N)nc2[nH]cnc12)(OC)OC [NU2050, 2-amino-6-(2,2-dimethoxy) butyloxypurine]",IC50,CDK1 (p34 cdc2)/cyclin B,> 100 µM
"Nc1nc(N)c(N)c(OCC2CCCCC2)n1 [NU6035, 2,5,6-triamino-4(cyclohexylmethoxy)-pyrimidine]",% inhibition CDK1,CDK1 (p34 cdc2)/cyclin B,40 ± 4%
same,inhibition at 100 µM,CDK2; [2],54 ± 8%
"C=CCOc1ncnc2nc[nH]c12 [NU2013, 6-Allyloxypurine]",IC50,CDK1 (p34 cdc2)/cyclin B,110 µM
Nc1nc(OCc2ccco2)c2nc[nH]c2n1 [2-amino-6-(2-furanyl)-methyloxypurine],IC50,CDK1 (p34 cdc2)/cyclin B,75 µM
"C=C(COc1nc(N)nc2[nH]cnc12)C(C)C [NU2055, O^6-(2-Isopropylallyl)guanine]",IC50,CDK1 (p34 cdc2)/cyclin B,13 µM
